According to patent US10709769B2, “Use of endostatin peptides for the treatment of fibrosis” (University of Pittsburgh—Of the Commonwealth System of …, priority 2009, dated 2020):

Legend:
ID1 = ID1 mRNA real-time PCR in primary human lung fibroblasts; format: cell-based
Protocol: FIG. 15. E4 reduces fibrosis in vitro by inducing expression of ID1, an inhibitor of TGF β, in primary human lung fibroblasts. Real-time PCR analysis was performed to determine the ID1 mRNA levels under the indicated conditions.

mouse skin = assay: TGF-β-induced dermal fibrosis in vivo in mouse skin
Protocol: FIG. 9. E4 reverses TGF β-induced dermal fibrosis even if administered 3 days following TGF-β.
CB57BL6/J male mice were purchased from The Jackson Laboratory (Bar Harbor, Me.). Human rE (10 μg/ml) or Endostatin peptides (10 μg/ml) in combination with TGF-β (10 ng/ml), or TGF-β alone were injected intradermally on the back of mice in a total volume of 100 μl 1×PBS. Mice were injected in two different skin sites and sacrificed one week post-injection. Skin surrounding the injection site was harvested and fixed in 10% formalin prior to embedding in paraffin.
Six μm sections of paraffin-embedded human and mouse skin tissues were stained with hematoxylin and eosin (H&E). In some experiments, sections were stained with Masson trichrome which identifies collagens. Images were taken on a Nikon Eclipse 800 microscope. The thickness of the dermis was measured in 6 random fields of each section using the image/J® software. Data are shown in arbitrary units.
E4, a peptide representing the carboxy terminus of human endostatin, can attenuate fibrosis triggered by multiple fibrogenic factors. The anti-fibrotic effects of E4 can be detected whether administered concomitantly with or following the fibrogenic trigger. The efficacy of E4 was confirmed in […] pre-clinical models of fibrosis: a) bleomycin-induced dermal fibrosis in vivo in mouse skin, b) TGF-β induced dermal fibrosis in mouse skin, and c) bleomycin-induced pulmonary fibrosis. E4 peptide or a control peptide (E1; representing the amino terminal region of endostatin) were administered at the same time as TGF-β or bleomycin or 3-4 days following TGF-β or bleomycin. Mice were sacrificed one and two weeks after TGF-β-initiation of dermal fibrosis, and two and three weeks after bleomycin-induced pulmonary fibrosis. Two different modes of administration of the E4 peptide were also tested. It was confirmed that intraperitoneal and intratracheal administration was effective. The amount of E4 that was administered ws 10 μg/ml in a total volume of 100 μl for skin and IP injections and 50 μl for IT administration.

Egr-1 = Egr-1 western blot in primary human lung fibroblasts; format: cell-based; settings: TGFβ followed by E4 after 60 minutes, harvested after 24 hours
Protocol: FIG. 16. E-4 reduces fibrosis in vitro by reducing levels of the master transcription factor Egr-1 in primary human lung fibroblasts. Reduction of Egr-1 levels parallels that of collagen, SMA, and fibronectin. Lane 1: vehicle (DMSO); Lane 2: E4; Lane 3: TGFβ, Lane 4 TGFβ followed by E4 after 60 minutes. The samples were harvested after 24 hours.
E4 also promotes the degradation of ECM components via induction and activation of matrix metalloprotease (MMP-2), an enzyme that degrades several ECM molecules including fibronectin and native and denatured collagens (FIG. 14). In addition, E4 increases levels of inhibitor of differentiation (ID)-1, a transcription factor that inhibits TGF-β effects (see FIG. 15). It was determined in a Western bloat analysis that E4 reduces the levels of the master switch transcription factor, Egr-1 (see FIG. 16) in primary human lung fibroblasts, treated and harvested after 24 hours. The reduction of Egr-1 levels parallels a reduction in collagen, SMA and fibronectin. Egr-1 is known to mediate the effects of several fibrotic agents (including TGF-β and bleomycin).

mouse lung = assay: Bleomycin-induced pulmonary fibrosis in mice; format: in vivo; settings: for fibrosis and Masson Trichrome staining: 10 μg/ml intratracheally, lungs harvested 10 days
Protocol: FIG. 10A-10C. E4 attenuates bleomycin induced lung fibrosis in vivo. A: Sixty μg of bleomycin was administrated intratracheally in combination with DMSO as a vehicle (Bleo) or E-4 (Bleo+E-4; 10 μg/ml). In some mice, E-4 (10 μg/ml) was administered intratracheally (IT) three days following bleomycin treatment (Bleo+E-4L). PBS was used as a vehicle for bleomycin (V). Lungs were harvested 10 days post-treatment. Representative images stained with H&E (left panel) and Masson trichrome (right panel) are representative of 3 independent experiments. Magnification, 100×. […] B: Quantification of acid soluble collagen obtained from mouse lungs treated as in panel C with V, Bleo, Bleo+E-4, and Bleo+E-4L. The levels of collagen are presented as μg/mg (lung) from three independent experiments. Unpaired-t test was used for statistical analysis. * P<0.05. […] For Bleo+E4L, Bleo was administered first, then there was a lag of three days between Bleo and E4 administration).
FIG. 11. E4 attenuates bleomycin induced lung fibrosis in vivo whether administered intraperitoneally (IP) or intratracheally (IT). Bleomycin was administered IT at day 1, and E4 was administered either IP or IT at day 3. Lungs were harvested at day 21. […] Thus E4 is effective at reducing fibrosis irrespective of the route of administration. Results are shown for vehicle alone (V), bleomycin alone (Bleo), bleomycin and E4 administered IP, and bleomycin and E4 administered IT.
E4, a peptide representing the carboxy terminus of human endostatin, can attenuate fibrosis triggered by multiple fibrogenic factors. The anti-fibrotic effects of E4 can be detected whether administered concomitantly with or following the fibrogenic trigger. The efficacy of E4 was confirmed in […] pre-clinical models of fibrosis: a) bleomycin-induced dermal fibrosis in vivo in mouse skin, b) TGF-β induced dermal fibrosis in mouse skin, and c) bleomycin-induced pulmonary fibrosis. E4 peptide or a control peptide (E1; representing the amino terminal region of endostatin) were administered at the same time as TGF-β or bleomycin or 3-4 days following TGF-β or bleomycin. […]
For these studies, fibrosis was assessed by measurement of dermal thickness on H&E skin sections (skin), assessment of collagen levels by Masson Trichrome staining (skin and lung), and measurement of collagen levels by Sircol assay (lung). Furthermore, to confirm the mechanism by which E4 exerts its anti-fibrotic effects, the production of extra-cellular matrix (ECM) components, the levels of enzymes that promote matrix stabilization and thus accumulation and levels of those that degrade ECM components, and levels of transcription factors downstream of the pro-fibrotic triggers were evaluated. Results were assessed using the unpaired t test and the 3-way ANOVA (for the ID1 data).

lysyl oxidase (LOX) = assay: LOX immunohistochemistry in lung sections of bleomycin-treated mice; format: in vivo, mouse; settings: lung sections of mice treated with bleomycin with or without E4
Description: FIG. 12. […] Lung sections of mice treated with BLM with or without E4 were used in immunohistochemistry to detect LOX. The sections shown are control IgG, phosphate buffered saline, bleomycin and bleomycin followed by treatment with E4.
The results also evidenced that E4 exerts its anti-fibrotic effects via multiple pathways. E4 reduces levels of lysyl oxidase (LOX), and enzyme responsible for the cross-linking of collagen, elastin, and other extracellular matrix (ECM) molecules and thus the stabilization of the ECM.

With “H-^133SYCETWRTEAPSATGQASSLLGGRLLGQSAASCHHAYIVLCIENSFMT^180-CONH2 (H-SYCETWRTEAPSATGQASSLLGGRLLGQSAASCHHAYIVLCIENSFMT-NH2; cysteine pairing not given here; UniProt P39060 1704-1751, looked up, fragment) [E4, amino acids 133-180 of human endostatin; differs from E3 by the presence of a carboxy-terminal amide]” the “levels of inhibitor of differentiation (ID)-1” value (ID1) was “increases”, the “TGFbeta induced dermal fibrosis, delayed treatment” value (mouse skin; TGFβ day 1, peptide IP at day 3, harvested day 7) was “significant decrease” and the “TGF-β-induced dermal fibrosis (dermal thickness)” value (mouse skin; mice, intradermal, 10 μg/ml with TGF-β 10 ng/ml, one week post-injection) was “prevented”. The “levels of Egr-1” value (Egr-1) was “reduces”, the “fibrosis and Masson Trichrome staining” value (mouse lung; concomitantly with bleomycin) was “marked reduction” and the “fibrosis and Masson Trichrome staining” value (mouse lung; three days following bleomycin) was “marked reduction”. The “bleomycin induced lung fibrosis” value (mouse lung; intraperitoneal at day 3, lungs harvested day 21) was “significant attenuation”, the “bleomycin induced lung fibrosis” value (mouse lung; intratracheal at day 3, lungs harvested day 21) was “significant attenuation” and the “levels of lysyl oxidase (LOX)” value (lysyl oxidase (LOX)) was “reduces”.
